Measured values reported in ChEMBL document CHEMBL1201862, “PubChem BioAssay data set” (2004).
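A five-concentration, 48-hour dose response in 96-well plates underlies each endpoint, interpolated linearly between surrounding concentrations. GI50 marks 50% less growth.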 Calls of active or inactive are those of the source. No stated cut-off is given here; in the data, active = GI50 up to about 1.1 µM and inactive = higher.

Columns and labels:
Assay in all cases: DTP human tumour cell line panel, 48 h
SF-268 = tested on: SF-268
HCT-15 = tested on: HCT-15
NCI-H23 = tested on: NCI-H23
SNB-75 = tested on: SNB-75
SK-MEL-28 = tested on: SK-MEL-28
TK-10 = tested on: TK-10
UACC-62 = tested on: UACC-62
NCI/ADR-RES = tested on: NCI/ADR-RES
CCRF-CEM = tested on: CCRF-CEM
MOLT-4 = tested on: MOLT-4
CAKI-1 = tested on: CAKI-1
EKVX = tested on: EKVX
UACC-257 = tested on: UACC-257
COLO 205 = tested on: COLO 205
MDA-MB-435 = tested on: MDA-MB-435
K562 = tested on: K562
SR = tested on: SR
NCI-H522 = tested on: NCI-H522
A498 = tested on: A498
OVCAR-4 = tested on: OVCAR-4
PC-3 = tested on: PC-3
SN12C = tested on: SN12C
U-251 = tested on: U-251
OVCAR-5 = tested on: OVCAR-5
Hs-578T = tested on: Hs-578T
OVCAR-3 = tested on: OVCAR-3
IGROV-1 = tested on: IGROV-1
KM12 = tested on: KM12
M14 = tested on: M14
SK-OV-3 = tested on: SK-OV-3
HCT-116 = tested on: HCT-116
Malme-3M = tested on: Malme-3M
786-0 = tested on: 786-0
HL-60 = tested on: HL-60
HOP-62 = tested on: HOP-62
SF-539 = tested on: SF-539
UO-31 = tested on: UO-31
DU-145 = tested on: DU-145
SF-295 = tested on: SF-295
MCF7 = tested on: MCF7
SNB-19 = tested on: SNB-19
OVCAR-8 = tested on: OVCAR-8
NCI-H460 = tested on: NCI-H460
T47D = tested on: T47D
ACHN = tested on: ACHN
RXF 393 = tested on: RXF 393
A549 = tested on: A549
HOP-92 = tested on: HOP-92
HCC 2998 = tested on: HCC 2998
SW-620 = tested on: SW-620
HT-29 = tested on: HT-29
SK-MEL-5 = tested on: SK-MEL-5
LOX IMVI = tested on: LOX IMVI
MDA-MB-231 = tested on: MDA-MB-231
RPMI-8226 = tested on: RPMI-8226
NCI-H226 = tested on: NCI-H226

c1ccc2c(Cc3nnc4sc(SSc5nn6c(Cc7c[nH]c8ccccc78)nnc6s5)nn34)c[nH]c2c1
GI50 (SF-268): 21.8 µM (inactive) | GI50 (HCT-15): 21.3 µM | GI50 (NCI-H23): 19.1 µM (inactive) | GI50 (SNB-75): 48.2 µM (inactive) | GI50 (SK-MEL-28): 33.5 µM (inactive) | GI50 (TK-10): 38.7 µM (inactive) | GI50 (UACC-62): 16 µM (inactive) | GI50 (NCI/ADR-RES): 20.3 µM (inactive) | GI50 (CCRF-CEM): 32.6 µM (inactive) | GI50 (MOLT-4): 8.93 µM (inactive) | GI50 (CAKI-1): 18.7 µM (inactive) | GI50 (EKVX): 23 µM (inactive) | GI50 (UACC-257): 33 µM (inactive) | GI50 (COLO 205): 21.1 µM (inactive) | GI50 (MDA-MB-435): 19 µM (inactive) | GI50 (K562): 17.4 µM (inactive) | GI50 (SR): 18.1 µM (inactive) | GI50 (NCI-H522): 17.9 µM (inactive) | GI50 (A498): 11.3 µM (inactive) | GI50 (OVCAR-4): 58.1 µM (inactive) | GI50 (PC-3): 19.3 µM (inactive) | GI50 (SN12C): 18.7 µM (inactive) | GI50 (U-251): 21.7 µM (inactive) | GI50 (OVCAR-5): 26.2 µM (inactive) | GI50 (Hs-578T): 23.8 µM (inactive) | GI50 (OVCAR-3): 11.8 µM (inactive) | GI50 (IGROV-1): 2.99 µM (inactive) | GI50 (KM12): 22.9 µM (inactive) | GI50 (M14): 18.5 µM (inactive) | GI50 (SK-OV-3): 39.9 µM (inactive) | GI50 (HCT-116): 16 µM (inactive) | GI50 (Malme-3M): 31.3 µM (inactive) | GI50 (786-0): 20.8 µM (inactive) | GI50 (HL-60): 24.2 µM (inactive) | GI50 (HOP-62): 16.2 µM (inactive) | GI50 (SF-539): 23.1 µM (inactive) | GI50 (UO-31): 14.5 µM (inactive) | GI50 (DU-145): 26.3 µM (inactive) | GI50 (SF-295): 19.5 µM (inactive) | GI50 (MCF7): 15.1 µM (inactive) | GI50 (SNB-19): 31 µM (inactive) | GI50 (OVCAR-8): 26.4 µM (inactive) | GI50 (NCI-H460): 30.4 µM (inactive) | GI50 (T47D): 23.2 µM (inactive) | GI50 (ACHN): 26.4 µM (inactive) | GI50 (RXF 393): 18.8 µM (inactive) | GI50 (A549): 28.8 µM (inactive) | GI50 (HOP-92): 31 µM (inactive) | GI50 (HCC 2998): 16.7 µM (inactive) | GI50 (SW-620): 16.7 µM (inactive) | GI50 (HT-29): 22.5 µM (inactive) | GI50 (SK-MEL-5): 11.2 µM (inactive)

COC(C)(C)[C@@H](O)[C@H](O)C[C@H](C)C1=C2CC[C@@H]3[C@@]4(C)CC[C@@H](OC(C)=O)C(C)(C)[C@@H]4C[C@@H](OC4OC(COC(C)=O)C(O)C(O)C4O)[C@@]3(C)[C@]2(C)CC1 (some centres not stated)
GI50 (SNB-75): 8.79 µM (inactive) | GI50 (U-251): 10.7 µM (inactive) | GI50 (SK-OV-3): 15.3 µM (inactive)

C#CCN(CC#C)C(=O)C(=O)c1c[nH]c2ccc(OC)cc12
GI50 (SF-268): 29.5 µM (inactive) | GI50 (HCT-15): 15.5 µM | GI50 (LOX IMVI): 18.7 µM (inactive) | GI50 (NCI-H23): 22.4 µM (inactive) | GI50 (SNB-75): 20.2 µM (inactive) | GI50 (SK-MEL-28): 16.1 µM (inactive) | GI50 (TK-10): 14.5 µM (inactive) | GI50 (UACC-62): 19.5 µM (inactive) | GI50 (NCI/ADR-RES): 21.8 µM (inactive) | GI50 (CCRF-CEM): 19.7 µM (inactive) | GI50 (MDA-MB-231): 14.9 µM (inactive) | GI50 (MOLT-4): > 10 µM (inactive) | GI50 (EKVX): 32.4 µM (inactive) | GI50 (UACC-257): 17.5 µM (inactive) | GI50 (COLO 205): 21.6 µM (inactive) | GI50 (RPMI-8226): 10.6 µM (inactive) | GI50 (MDA-MB-435): 18.5 µM (inactive) | GI50 (K562): 18.6 µM (inactive) | GI50 (SR): 11.1 µM (inactive) | GI50 (A498): 15.1 µM (inactive) | GI50 (OVCAR-4): > 10 µM (inactive) | GI50 (SN12C): 15.3 µM (inactive) | GI50 (U-251): 14.4 µM (inactive) | GI50 (OVCAR-5): 17.4 µM (inactive) | GI50 (Hs-578T): 16.1 µM (inactive) | GI50 (IGROV-1): 33 µM (inactive) | GI50 (KM12): 14 µM (inactive) | GI50 (M14): 18.5 µM (inactive) | GI50 (SK-OV-3): 17.8 µM (inactive) | GI50 (HCT-116): 17.5 µM (inactive) | GI50 (Malme-3M): 17.2 µM (inactive) | GI50 (786-0): 16.6 µM (inactive) | GI50 (HL-60): 3.99 µM (inactive) | GI50 (HOP-62): 16.7 µM (inactive) | GI50 (SF-539): 14 µM (inactive) | GI50 (UO-31): 8.11 µM (inactive) | GI50 (DU-145): 39.1 µM (inactive) | GI50 (SF-295): 17.5 µM (inactive) | GI50 (MCF7): 18.6 µM (inactive) | GI50 (SNB-19): 16.1 µM (inactive) | GI50 (OVCAR-8): 22 µM (inactive) | GI50 (NCI-H460): 15 µM (inactive) | GI50 (T47D): 24.2 µM (inactive) | GI50 (NCI-H226): 18.2 µM (inactive) | GI50 (ACHN): 21.3 µM (inactive) | GI50 (RXF 393): 16.3 µM (inactive) | GI50 (A549): 25.7 µM (inactive) | GI50 (HOP-92): 14.2 µM (inactive) | GI50 (HCC 2998): 16.9 µM (inactive) | GI50 (SW-620): 20.3 µM (inactive) | GI50 (HT-29): 12.5 µM (inactive) | GI50 (SK-MEL-5): 15.8 µM (inactive)
